This is an account of results in US7510850B2, “Isolation of the mitotic spindle matrix and its methods of use” (Carnegie Institution of Washington, priority 2005, dated 2009).

For assay [1], the system named is LB3-matrix. The experiment in a line: LB3-matrix assembly in egg extracts (AurA-beads plus RanGTP or sperm chromatin). Type of assay: biochemical, Xenopus. The method, then: Two methods were used to assay for LB3-matrix assembled in egg extracts. In the first method, spindle assembly was induced with either sperm or AurA-beads plus RanGTP. After incubation, 10 μl of egg extract was diluted into 1 ml XB buffer containing nocodazole (10 μM final concentration) and incubated at room temperature for 10 to 15 minutes to depolymerize MTs. In the second method, egg extracts were incubated with either sperm or AurA-beads plus RanGTP in the presence of 10 μM nocodazole at room temperature for the same time as for spindle assembly reactions. After incubated the egg extracts were diluted into 1 ml BRB80 buffer containing 30% glycerol. LB3-matrix assembled in both methods was spun onto coverslips through 3 ml BRB80 buffer containing 40% glycerol in the same manner as MT spin-down. The LB3-matrix were fixed with methanol (−20° C.) and stained with either polyclonal or monoclonal antibodies to LB3.
To detect the membrane in the lamin B matrix, spindles and LB3-matrices were assembled and spun onto coverslips as described above. The coverslips were incubated in BRB80 containing 20% sucrose and 1 μM Vybrant CM-Dil (Molecular Probes, V22888) for 5 minutes at room temperature and then washed briefly in BRB80 containing 20% sucrose. […]

Assay [2] deals with Mouse ES cells. The experiment in a line: Mitotic arrest of mouse ES cells. Type of assay: cell-based. The conditions noted are these: nocodazole 400 nM, about 12 hours. As to the method: FIG. 9: Induction of mitotic spindle matrix assembly by RanGTP and AurA-beads in mouse ES cells. Mouse ES cells were arrested in mitosis using nocodazole. 70-90% mitotic arrest can be achieved after about 12 hours of nocodazole (400 nM) treatment. The ES cells were washed in PBS and the cell pellet was snap frozen in liquid nitrogen. To make the cell lysate, an energy mix, which contains 0.5 mg/ml delta 90 cyclin B, 10 mM ATP, 100 mM creatine phosphate, 0.5 mg/ml creatine kinase, that equals to 5% of the volume of the ES cell pellet was used to resuspend the ES cell pellet. A ˜2-second sonication was used to disrupt the cell followed by centrifugation to make clarified and concentrated ES cell lysates. RanGTP and AurA-beads were added to the lysate to induce the assembly of mitotic spindle matrix. Shown are matrices that were double labeled with tubulin and lamin B, Sox2, or nanog. AurA-beads (2.8 μm) embedded in the matrices serve as reference for the scale.

Assay [3] deals with mitotic spindle. Kind of assay: Spindle assembly in Xenopus egg extract. Type of assay: biochemical. The conditions noted are these: sperm or RanGTP plus AurA-beads; LB3T, LB3T-nls 10 μM; ΔNLB3, wild-type LB3 2 μM. The method, then:
CSF-arrested Xenopus egg extracts, Xenopus sperm, and AurA-beads were prepared as described. […] Spindle assembly reactions were incubated at room temperature for 60 to 90 minutes with sperm or for 10 to 30 minutes with AurA-beads and RanGTP. To immunodeplete LB3, monoclonal antibody or polyclonal antibody to LB3 was coupled to protein A magnetic or agarose beads. IgG from non-immunized rabbits (Jackson Laboratory) was used for mock-depletion. To inhibit LB3 assembly with dominant negative LB3 mutants, LB3T and LB3T-nls were added at 10 μM final concentration, ΔNLB3 and wild-type LB3 were added at 2 μM final concentration to the egg extracts and incubated for 20 minutes before spindle assembly assays.

With triton X100, the “lamin B matrix integrity” value in assay [1] (0.1% in XB containing nocodazole, 10 min at room temperature) is reported as “completely disrupted”. Consider `COC(=O)Nc1nc2ccc(C(=O)c3cccs3)cc2[nH]1` [nocodazole], for which the mitotic arrest in assay [2] is 70-90%. Besides, the “sperm around which LB3-matrix was still assembled” value in assay [1] (MT assembly inhibited by nocodazole) is reported as “more than half”.

B1: wild-type LB3: lamin B3, the major form of lamin B in Xenopus eggs, 6His fusion protein (protein)
chain: MATSTPSRAREHASAAQSPGSPTRISRMQEKEDLRHLNDRLAAYIERVRSLEADKSLLKIQLEEREEVSSREVTNLRQLYETELADARKLLDQTANERARLQVELGKVREEYRQLQARNSKKENDLSLAQNQLRDLESKLNTKEAELATALSGKRGLEEQLQEQRAQIAGLESSLRDTTKQLHDEMLWRVDLENKMQTIREQLDFQKNIHTQEVKEIKKRHDTRIVEIDSGRRVEFESKLAEALQELRRDHEQQILEYKEHLEKNFSAKLENAQLAAAKNSDYASATREEIMATKLRVDTLSSQLNHYQKQNSALEAKVRDLQDMLDRAHDMHRRQMTEKDREVTEIRQTLQGQLEEYEQLLDVKLALDMEINAYRKMLEGEEQRLKLSPSPSQRSTVSRASTSQTSRLLRGKKRKLDETGRSVTKRSYKVVQQASSTGPVSVEDIDPEGNYVRLLNNTEEDFSLHGWVVKRMHMSLPEIAFKLPCRFILKSSQRVTIWAAGAGAVHSPPTDLVWKSQKTWGTGDNIKITLLDSTGEECAERTLYRVIGEEGETDEDFVEEEELERQFRSQSHQSVDPSC
On to B1, for which, in assay [3], the spindle assembly result is “neither buffer control nor wild-type LB3 affected”.
